This note sets out measurements from article PMC7939570, “Discovery of potent histone deacetylase inhibitors with modified phenanthridine caps” (Journal of Enzyme Inhibition and Medicinal Chemistry, 2021).

The test system of test [1] is Hela nucleus extract containing a mixture of HDAC isoforms. The test can be described thus: HDAC enzyme inhibitory assay with Hela nucleus extract. Format: biochemical. The following applies: 1 µM, mean of three experiments. The protocol:
The HDAC enzyme inhibitory activities of synthesised compounds were investigated by utilising Hela nucleus extract containing a mixture of HDAC isoforms. Percentage inhibitory rate was used to determine the activity of tested compounds (Tables 1 and 2). The Fa series compounds were firstly synthesised for the activity screening. […] To investigate whether aromatic linker could improve the inhibitory activities, structural modifications were performed on current molecules.

The subject of the next test is U937 cells. Put plainly: MTT antiproliferative assay, U937 cells. To be noted: U937 cells, MTT, mean of three experiments; for U937 percentage inhibitory rate: 1 µM; for inhibition at 1 µM: Homo sapiens, U-937, read-out: U937 percentage inhibitory rate, 1 µM. For orientation: Tetrazolium dyes change colour on reduction, which living cells bring about.

Take “4-{4-[6–(3-Nitro-benzoylamino)-benzo[1,3]dioxol-5-yl]-benzoylamino}-N-Hydroxy-butyramide [Fa-17]”: the “HDACs percentage inhibitory rate” value in test [1] was 52.44 ± 6.17%. The “U937 percentage inhibitory rate” value in the test on U937 cells was determined as 13.42 ± 0.81%.

For `O=C(CCCNC(=O)c1ccc(-c2cc3c(cc2NC(=O)c2cccc(Br)c2)OCO3)cc1)NO` [Fa-1, 4-{4-[6–(3-Bromo-benzoylamino)-benzo[1,3]dioxol-5-yl]-benzoylamino}-N-Hydroxy-butyramide], the “HDACs percentage inhibitory rate” value in test [1] came to 6.63 ± 1.28%. Further, the inhibition at 1 µM in the test on U937 cells turned out to be 21 ± 0.55%.

For the compound `COc1ccccc1C(=O)Nc1cc2c(cc1-c1ccc(C(=O)NCCCC(=O)NO)cc1)OCO2` [Fa-2, 4-{4-[6–(2-Methoxy-benzoylamino)-benzo[1,3]dioxol-5-yl]-benzoylamino}-N-Hydroxy-butyramide], in test [1], the “HDACs percentage inhibitory rate” value was 15.23 ± 3.23%. Besides, the inhibition at 1 µM in the test on U937 cells amounted to 19.2 ± 1.09%.

For the compound `O=C(CCCNC(=O)c1ccc(-c2cc3c(cc2NC(=O)c2ccc(F)cc2)OCO3)cc1)NO` [Fa-3, 4-{4-[6-(4-Fluoro-benzoylamino)-benzo[1,3]dioxol-5-yl]-benzoylamino}-N-Hydroxy-butyramide], the “HDACs percentage inhibitory rate” value in test [1] is on record as 9.22 ± 2.28%. For the same compound, in the test on U937 cells, the inhibition at 1 µM was 19.4 ± 1.44%.

`Cc1ccccc1C(=O)Nc1cc2c(cc1-c1ccc(C(=O)NCCCC(=O)NO)cc1)OCO2` [Fa-4, 4-{4-[6-(2-Methyl-benzoylamino)-benzo[1,3]dioxol-5-yl]-benzoylamino}-N-Hydroxy-butyramide]: in test [1], the “HDACs percentage inhibitory rate” value is given as 13.65 ± 4.04%. In addition, in the test on U937 cells, the inhibition at 1 µM stood at 18.2 ± 2.91%.

With `O=C(CCCNC(=O)c1ccc(-c2cc3c(cc2NC(=O)c2cccc(F)c2)OCO3)cc1)NO` [Fa-5, 4-{4-[6-(3-Fluoro-benzoylamino)-benzo[1,3]dioxol-5-yl]-benzoylamino}-N-Hydroxy-butyramide], in the test with U937 cells, the “U937 percentage inhibitory rate” value stood at 33.95 ± 1.70% and the inhibition at 1 µM was determined as 19.9 ± 1.33%.

Take `O=C(CCCNC(=O)c1ccc(-c2cc3c(cc2NC(=O)c2ccccc2C(F)(F)F)OCO3)cc1)NO` [Fa-6, 4-{4-[6-(2-Trifluoromethyl-benzoylamino)-benzo[1,3]dioxol-5-yl]-benzoylamino}-N-Hydroxy-butyramide]: the “HDACs percentage inhibitory rate” value in test [1] was 24.88 ± 4.88%. For the same compound, in the test with U937 cells, the inhibition at 1 µM came out at 15 ± 2.47%.

On to `CCc1ccc(C(=O)Nc2cc3c(cc2-c2ccc(C(=O)NCCCC(=O)NO)cc2)OCO3)cc1` [Fa-7, 4-{4-[6-(4-Ethyl-benzoylamino)-benzo[1,3]dioxol-5-yl]-benzoylamino}-N-Hydroxy-butyramide], for which the “HDACs percentage inhibitory rate” value in test [1] stood at 25.79 ± 5.79%. In addition, the inhibition at 1 µM in the test on U937 cells was determined as 22.2 ± 2.28%.

For the compound `O=C(CCCNC(=O)c1ccc(-c2cc3c(cc2NC(=O)c2ccccc2F)OCO3)cc1)NO` [Fa-8, 4-{4-[6-(2-Fluoro-benzoylamino)-benzo[1,3]dioxol-5-yl]-benzoylamino}-N-Hydroxy-butyramide], in test [1], the “HDACs percentage inhibitory rate” value came to 5.32 ± 1.72%. The inhibition at 1 µM in the test with U937 cells stood at 19.9 ± 1.96%.

For `O=C(CCCNC(=O)c1ccc(-c2cc3c(cc2NC(=O)c2cccc(C(F)(F)F)c2)OCO3)cc1)NO` [Fa-9, 4-{4-[6-(3-Trifluoromethyl-benzoylamino)-benzo[1,3]dioxol-5-yl]-benzoylamino}-N-Hydroxy-butyramide], the “HDACs percentage inhibitory rate” value in test [1] is 18.92 ± 1.30%. For the same compound, the inhibition at 1 µM in the test on U937 cells amounted to 20.45 ± 0.05%.

With `O=C(CCCNC(=O)c1ccc(-c2cc3c(cc2NC(=O)c2ccccc2Cl)OCO3)cc1)NO` [Fa-10, 4-{4-[6-(2-Chloro-benzoylamino)-benzo[1,3]dioxol-5-yl]-benzoylamino}-N-Hydroxy-butyramide], the “HDACs percentage inhibitory rate” value in test [1] amounted to 23.41 ± 1.95%. Further, the inhibition at 1 µM with U937 cells came to 23 ± 1.23%.

`O=C(CCCNC(=O)c1ccc(-c2cc3c(cc2NC(=O)c2ccccc2)OCO3)cc1)NO` [Fa-11, 4-[4–(6-Benzoylamino-benzo[1,3]dioxol-5-yl)-benzoylamino]-N-Hydroxy-butyramide]: the “HDACs percentage inhibitory rate” value in test [1] turned out to be 14.32 ± 2.19%. Further, the inhibition at 1 µM in the test with U937 cells amounted to 25.6 ± 1.76%.

In the case of `O=C(CCCNC(=O)c1ccc(-c2cc3c(cc2NC(=O)c2ccc(C(F)(F)F)cc2)OCO3)cc1)NO` [Fa-12, 4-{4-[6–(4-Trifluoromethyl-benzoylamino)-benzo[1,3]dioxol-5-yl]-benzoylamino}-N-Hydroxy-butyramide], the “HDACs percentage inhibitory rate” value in test [1] is given as 17.69 ± 3.52%. Also, the inhibition at 1 µM in the test with U937 cells was determined as 48.5 ± 3.98%.

In the case of `COc1ccc(C(=O)Nc2cc3c(cc2-c2ccc(C(=O)NCCCC(=O)NO)cc2)OCO3)cc1` [Fa-13, 4-{4-[6–(4-Methoxy-benzoylamino)-benzo[1,3]dioxol-5-yl]-benzoylamino}-N-Hydroxy-butyramide], the “HDACs percentage inhibitory rate” value in test [1] came to 44.51 ± 0.22%. In the test with U937 cells, the inhibition at 1 µM worked out at 88.9 ± 5%.

Consider `O=C(CCCNC(=O)c1ccc(-c2cc3c(cc2NC(=O)c2cc(F)cc(F)c2)OCO3)cc1)NO` [Fa-14, 4-{4-[6–(3,5-Difluoro-benzoylamino)-benzo[1,3]dioxol-5-yl]-benzoylamino}-N-Hydroxy-butyramide], for which, in test [1], the “HDACs percentage inhibitory rate” value worked out at 28.72 ± 4.74%. Further, in the test with U937 cells, the inhibition at 1 µM came out at 9.84 ± 0.71%.

Take `O=C(CCCNC(=O)c1ccc(-c2cc3c(cc2NC(=O)c2ccc(F)cc2F)OCO3)cc1)NO` [Fa-15, 4-{4-[6–(2,4-Difluoro-benzoylamino)-benzo[1,3]dioxol-5-yl]-benzoylamino}-N-Hydroxy-butyramide]: in test [1], the “HDACs percentage inhibitory rate” value came to 19.51 ± 4.10%. Also, the inhibition at 1 µM with U937 cells was 6.76 ± 0.26%.

With `O=C(CCCNC(=O)c1ccc(-c2cc3c(cc2NC(=O)c2ccc(OC(F)(F)F)cc2)OCO3)cc1)NO` [Fa-16, 4-{4-[6–(4-Trifluoromethoxy-benzoylamino)-benzo[1,3]dioxol-5-yl]-benzoylamino}-N-Hydroxy-butyramide], the “HDACs percentage inhibitory rate” value in test [1] was found to be 34.10 ± 1.02%. Further, the inhibition at 1 µM with U937 cells worked out at 16.1 ± 2.82%.

Consider `O=C(CCCNC(=O)c1ccc(-c2cc3c(cc2NC(=O)c2ccc(F)cc2C(F)(F)F)OCO3)cc1)NO` [Fa-18, 4-{4-[6–(4-Fluoro-2-trifluoromethyl-benzoylamino)-benzo[1,3]dioxol-5-yl]-benzoylamino}-N-Hydroxy-butyramide], for which the “HDACs percentage inhibitory rate” value in test [1] worked out at 31.47 ± 3.47%. In addition, in the test on U937 cells, the inhibition at 1 µM turned out to be 10.3 ± 1.31%.

As to `O=C(CCCNC(=O)c1ccc(-c2cc3c(cc2NC(=O)c2ccc(F)c(Cl)c2)OCO3)cc1)NO` [Fa-19, 4-{4-[6–(3-Chloro-4-fluoro-benzoylamino)-benzo[1,3]dioxol-5-yl]-benzoylamino}-N-Hydroxy-butyramide], the “HDACs percentage inhibitory rate” value in test [1] is reported as 24.43 ± 2.90%. Moreover, the inhibition at 1 µM with U937 cells came out at 15.8 ± 2.29%.

For `CCCc1ccc(C(=O)Nc2cc3c(cc2-c2ccc(C(=O)NCCCC(=O)NO)cc2)OCO3)cc1` [Fa-20, 4-{4-[6–(4-Propyl-benzoylamino)-benzo[1,3]dioxol-5-yl]-benzoylamino}-N-Hydroxy-butyramide], the “HDACs percentage inhibitory rate” value in test [1] is reported as 21.14 ± 2.55%. In the test on U937 cells, the inhibition at 1 µM was determined as 12.2 ± 0.24%.

For `O=C(CCCNC(=O)c1ccc(-c2cc3c(cc2NC(=O)c2c(F)cccc2Cl)OCO3)cc1)NO` [Fa-21, 4-{4-[6–(2-Chloro-6-fluoro-benzoylamino)-benzo[1,3]dioxol-5-yl]-benzoylamino}-N-Hydroxy-butyramide], the “HDACs percentage inhibitory rate” value in test [1] turned out to be 15.58 ± 3.25%. Moreover, the inhibition at 1 µM in the test with U937 cells came out at 11.2 ± 1.01%.
